Tests used:
Assay in all cases: relative viability (nuclei count vs DMSO), 5 days (fraction); higher = more cells survive
VE-821 = compound: CS(=O)(=O)c1ccc(-c2cnc(N)c(C(=O)Nc3ccccc3)n2)cc1 [VE-821]
Summary of the method: (§1)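 Viability was read as treated-well nuclei divided by vehicle-well nuclei, using the median across plates. Lung cancer cell lines in 1536-well plates were kept overnight at 37 °C, pinned with five √10-spaced library-drug doses, and after 5 days were Hoechst-stained, imaged at 4× and counted in MetaXpress. Plates passed only with control CV below 25% and at least one doubling.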

Vismodegib = compound: CS(=O)(=O)c1ccc(C(=O)Nc2ccc(Cl)c(-c3ccccn3)c2)c(Cl)c1 [Vismodegib]
Summary of the method: as §1

Ruxolitinib = compound: N#CC[C@H](C1CCCC1)n1cc(-c2ncnc3[nH]ccc23)cn1 [Ruxolitinib]
Summary of the method: as §1

Vismodegib + Crizotinib = compound: CS(=O)(=O)c1ccc(C(=O)Nc2ccc(Cl)c(-c3ccccn3)c2)c(Cl)c1 [Vismodegib] + C[C@@H](Oc1cc(-c2cnn(C3CCNCC3)c2)cnc1N)c1c(Cl)ccc(F)c1Cl [Crizotinib] (partner 1 µM)
Summary of the method: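 A single step with final 0.05% Triton X-100, 1% formaldehyde and 1 ug/ml Hoechst fixed the cells and stained nuclei 5 days after treatment. Lung cancer cell lines in 1536-well plates had been treated by pin tool the day after seeding with one drug alone or a fixed anchor-drug dose plus five library-drug doses (not always all listed) in √10 steps, and nuclei were counted on 4× images. Relative viability is the ratio of nuclei in treated wells to nuclei in vehicle wells, taken as the median of duplicate plates.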

Cell Line | relative viability (VE-821; 0.08 µM) | relative viability (VE-821; 0.253 µM) | relative viability (VE-821; 0.8 µM) | relative viability (VE-821; 2.53 µM) | relative viability (VE-821; 8 µM) | relative viability (Vismodegib; 0.08 µM) | relative viability (Vismodegib; 0.253 µM) | relative viability (Vismodegib; 0.8 µM) | relative viability (Vismodegib; 2.53 µM) | relative viability (Vismodegib; 8 µM) | relative viability (Ruxolitinib; 0.08 µM) | relative viability (Ruxolitinib; 0.253 µM) | relative viability (Ruxolitinib; 0.8 µM) | relative viability (Ruxolitinib; 2.53 µM) | relative viability (Ruxolitinib; 8 µM) | relative viability (Vismodegib + Crizotinib; first compound 0.08 µM) | relative viability (Vismodegib + Crizotinib; first compound 0.253 µM) | relative viability (Vismodegib + Crizotinib; first compound 0.8 µM) | relative viability (Vismodegib + Crizotinib; first compound 2.53 µM) | relative viability (Vismodegib + Crizotinib; first compound 8 µM)
NCI-H838 | 1.06 | 0.887 | 0.902 | 1.01 | 0.791 | 0.906 | 0.893 | 0.941 | 0.947 | 0.973 | 0.918 | 0.897 | 0.832 | 0.567 | 0.478 | 0.816 | 0.787 | 0.885 | 0.821 | 0.848
NCI-H1299 | 1.02 | 0.971 | 0.987 | 0.997 | 0.941 | 1.04 | 0.973 | 1.02 | 1.03 | 1.02 | 1.04 | 1.01 | 1.01 | 0.974 | 0.866 | 0.918 | 0.929 | 0.96 | 0.96 | 0.947
NCI-H1355 | 1.05 | 0.919 | 0.963 | 1.04 | 0.604 | 0.947 | 0.992 | 0.904 | 0.99 | 0.93 | 1.07 | 0.962 | 0.957 | 0.922 | 0.918 | 1.04 | 0.995 | 1.02 | 1.07 | 1.09
NCI-H1437 | 1.03 | 0.97 | 0.988 | 1.01 | 0.956 | 0.951 | 0.967 | 1.01 | 0.964 | 0.999 | 1.09 | 1.1 | 1.08 | 0.946 | 0.848 | 0.876 | 0.912 | 0.902 | 0.934 | 0.931
NCI-H1563 | 1.01 | 0.985 | 0.81 | 0.886 | 0.762 | 0.944 | 0.931 | 0.954 | 1.04 | 1.02 | 0.985 | 0.99 | 1.02 | 0.853 | 0.879 | 0.914 | 0.801 | 0.888 | 0.814 | 0.969
NCI-H1650 | 0.934 | 0.841 | 0.911 | 0.802 | 0.465 | 0.934 | 0.813 | 0.877 | 0.864 | 0.941 | – | 0.958 | 1.29 | 0.812 | 0.787 | 0.884 | 0.904 | 0.97 | 0.932 | 0.918
NCI-H1651 | 0.976 | 0.954 | 0.922 | 0.977 | 0.969 | 0.945 | 0.976 | 0.947 | 0.956 | 1.02 | 0.948 | 0.978 | 0.971 | 0.939 | 0.976 | 0.776 | 0.851 | 0.871 | 0.825 | 0.829
NCI-H1666 | 1.02 | 0.952 | 1.01 | 1.1 | 0.853 | 0.931 | 0.928 | 1 | 0.955 | 1.07 | 1 | 0.987 | 1.07 | 0.884 | 1.1 | 0.917 | 0.849 | 1.06 | 1 | 0.948
NCI-H1703 | 1.09 | 0.793 | 0.836 | 0.689 | 0.444 | 0.998 | 0.826 | 1.21 | 0.824 | 1.33 | 0.994 | 0.862 | 0.978 | 0.498 | 0.663 | 0.54 | 0.664 | 0.628 | 0.57 | 0.93
NCI-H1734 | 1.07 | 0.989 | 0.964 | 1.03 | 0.656 | 0.966 | 0.954 | 0.951 | 0.993 | 0.961 | 0.962 | 0.914 | 1.15 | 0.879 | 0.942 | 0.687 | 0.654 | 0.762 | 0.62 | 0.756
NCI-H1755 | 1.04 | 0.966 | 0.905 | 0.957 | 0.873 | 0.983 | 0.982 | 1.01 | 1 | 0.982 | 0.974 | 0.989 | 1.03 | 0.916 | 0.825 | 0.817 | 0.842 | 0.964 | 0.839 | 0.859
NCI-H1792 | 1.26 | 0.817 | 0.842 | 1.37 | 0.824 | 0.854 | 0.877 | 0.941 | 0.928 | 0.922 | 0.871 | 0.761 | 0.856 | 0.822 | 0.561 | 0.93 | 0.939 | 0.976 | 0.986 | 0.907
NCI-H1915 | 1.07 | 0.949 | 1.02 | 1.05 | 0.755 | 1.02 | 1.01 | 0.957 | 0.983 | 0.907 | 0.983 | 1.03 | 1.07 | 0.901 | 0.85 | 0.903 | 0.874 | 0.877 | 0.866 | 0.965

Source: the supplement of paper PMC10307832
